Structures can show the parent of a compound that is named as a salt.
What was measured:
DMT1 = target: T1, DMT1 (Homo sapiens, UniProt P49281); test: DMT1 Activity Assay (In Vitro Assay); format: cell-based; settings: read-out: IC50 Activity Level
T1 sequence (P49281 1-568): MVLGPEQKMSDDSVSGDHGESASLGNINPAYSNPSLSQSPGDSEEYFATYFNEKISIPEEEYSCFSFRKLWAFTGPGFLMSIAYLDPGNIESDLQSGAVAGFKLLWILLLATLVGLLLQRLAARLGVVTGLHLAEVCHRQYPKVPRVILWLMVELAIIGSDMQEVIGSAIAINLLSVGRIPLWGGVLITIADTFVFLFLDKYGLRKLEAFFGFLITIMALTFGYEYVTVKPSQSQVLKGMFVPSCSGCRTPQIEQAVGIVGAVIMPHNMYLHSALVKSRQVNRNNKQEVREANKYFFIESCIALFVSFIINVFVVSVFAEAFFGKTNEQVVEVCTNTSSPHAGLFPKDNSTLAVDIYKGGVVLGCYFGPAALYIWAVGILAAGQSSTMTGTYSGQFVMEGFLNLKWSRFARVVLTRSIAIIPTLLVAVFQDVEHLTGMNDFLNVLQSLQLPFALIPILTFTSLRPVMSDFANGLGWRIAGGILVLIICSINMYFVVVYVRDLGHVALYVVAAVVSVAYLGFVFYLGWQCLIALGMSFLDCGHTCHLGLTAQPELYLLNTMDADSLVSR
From the text: In particular, identification of the compounds of the invention ability to modulate, preferably to inhibit, DMT1 activity, can be assessed using a variety of in vitro and in vivo assays, for measuring uptake of reduced iron (Fe^2+). One such protocol involves the screening of chemical agents for ability to modulate the activity of DMT1 thereby identifying it as a modulating agent. The in vitro activity of DMT1 can be measured in cell based assays by either directly measuring iron flux (using a radioactively labelled iron ^55Fe) or by measuring the fluorescence of a cell permeable iron fluorophore such as calcein. Stable cell lines overexpressing DMT1 are exposed to ^55Fe or loaded with calcein and then compound is applied. […] Alternatively, in another format electrophysiological techniques can be used to measure the current or iron or other metals traversing the cell membrane with DMT1 in a Xenopus oocyte or other cell based system (Gunshin et al., Nature, 1997, 31; 388(6641):482-8).
This example discloses various in vitro assay for testing and profiling test agents against DMT1 stably expressed in cells of either an endogenous or recombinant origin. These assays can use stable cell lines overexpressing DMT1 or intestinal cells and intestinal tissue expressing endogenous DMT1. DMT1 function could also be assessed in other cell types that express DMT1. Of greatest relevance would be the erythrocytes (e.g. K562 cells) or hepatocytes (e.g. […]).
DMT1 function can be assessed in a number of ways, including monitoring fluorescence changes of an iron fluorophore (e.g. calcein), monitoring uptake of radiolabelled iron (55Fe or ^59Fe) (Picard et al., J. Biol. Chem., 2000, 275(46):35738-45 and Wetli et al., Chem. Biol. 2006 September; 13(9):965-72), or by assessing the current or transport of iron and other metals into the cells or tissues using standard electrophysiological techniques (Gunshin et al., Nature, 1997, 388(6641):482-8.).
Variations of these assays involve alterations of incubation times, the iron status of the cells and tissues (which may be modulated by chemical chelators or by harvesting from iron deficient animals), the metal cation detected and the pH of the reaction can generally be made by conventional techniques known to those skilled in the art.

Row | melting point | IC50 (DMT1) [µM] | Structure (SMILES)
1 | > 220 °C | – | N=C(N)SCc1ccc(Cl)cc1Oc1cc([N+](=O)[O-])ccc1CSC(=N)N (as salt: hydrobromid) [Example 2.9, 2-[2-({[amino(imino)methyl]thio}methyl)-5-chlorophenoxy]-4-nitrobenzyl imidothiocarbamate dihydrobromide]
2 | 204 to 206 °C | – | N=C(N)SCc1cc(F)ccc1Oc1cccc(Cl)c1CSC(=N)N (as salt: hydrobromid) [Example 2.10, 2-[2-(2-carbamimidoylsulfanylmethyl-3-chlorophenoxy)-5-fluorobenzyl]isothiourea dihydrobromide]
3 | > 230 °C | – | N=C(N)SCc1cc(F)ccc1Oc1ccc(Cl)cc1CSC(=N)N (as salt: hydrobromid) [Example 2.11, 2-[2-(2-carbamimidoylsulfanylmethyl-4-chlorophenoxy)-5-fluorobenzyl]isothiourea dihydrobromide]
4 | > 220 °C | – | N=C(N)SCc1cc(F)ccc1Oc1ccc([N+](=O)[O-])cc1CSC(=N)N (as salt: hydrobromid) [Example 2.14, 2-[2-({[amino(imino)methyl]thio}methyl)-4-fluorophenoxy]-5-nitrobenzyl imidothiocarbamate dihydrobromide]
5 | > 220 °C | – | N=C(N)SCc1ccccc1Oc1ccc(Cl)cc1CSC(=N)N (as salt: hydrobromid) [Example 2.16, 2-[2-({[amino(imino)methyl]thio}methyl)-4-chlorophenoxy]benzyl imidothiocarbamate dihydrobromide]
6 | 150 to 152 °C | – | N=C(N)SCc1ccccc1Oc1cccc(Cl)c1CSC(=N)N (as salt: hydrobromid) [Example 2.17, 2-[2-({[amino(imino)methyl]thio}methyl)-3-chlorophenoxy]benzyl imidothiocarbamate dihydrobromide]
7 | > 220 °C | – | N=C(N)SCc1ccccc1Oc1cc(Cl)ccc1CSC(=N)N (as salt: hydrobromid) [Example 2.18, 2-[2-({[amino(imino)methyl]thio}methyl)-5-chlorophenoxy]benzyl imidothiocarbamate dihydrobromide]
8 | > 220 °C | – | N=C(N)SCc1cc([N+](=O)[O-])ccc1Oc1cc(Cl)ccc1CSC(=N)N (as salt: hydrobromid) [Example 2.19, 2-[2-({[amino(imino)methyl]thio}methyl)-5-chlorophenoxy]-5-nitrobenzyl imidothiocarbamate dihydrobromide]
9 | > 220 °C | – | N=C(N)SCc1cc(Cl)ccc1Oc1ccc([N+](=O)[O-])cc1CSC(=N)N (as salt: hydrobromid) [Example 2.20, 2-[2-({[amino(imino)methyl]thio}methyl)-4-chlorophenoxy]-5-nitrobenzyl imidothiocarbamate dihydrobromide]
10 | > 220 °C | – | N=C(N)SCc1ccccc1Oc1ccc(F)cc1CSC(=N)N (as salt: hydrobromid) [Example 2.21, 2-[2-({[amino(imino)methyl]thio}methyl)-4-fluorophenoxy]benzyl imidothiocarbamate dihydrobromide]
11 | 233 to 235 °C | – | N=C(N)SCc1cccc(CSC(=N)N)c1-c1c(CSC(=N)N)cccc1CSC(=N)N (as salt: hydrobromid) [Example 2.23, biphenyl-2,2′-6,6′-tetrayltetrakis(methylene)tetracarbamimidothioate tetrahydrobromide]
12 | 222 to 225 °C | – | COC(=O)c1cccc(CSC(=N)N)c1-c1c(CSC(=N)N)cccc1C(=O)OC (as salt: hydrobromid) [Example 2.24, dimethyl 6,6′-bis(carbamimidoylthiomethyl)biphenyl-2,2′-dicarboxylate dihydrobromide]
13 | 239 to 240 °C (dec.) | – | N=C(N)SCc1ccccc1C(=O)c1ccccc1CSC(=N)N (as salt: hydrobromid) [Example 2.25, 2-(6-(amidinothiomethyl)phenyl)carbonyl-1-(amidinothiomethyl)benzene dihydrobromide]
14 | > 250 °C | – | N=C(N)SCc1ccccc1C(=O)c1ccc(F)cc1CSC(=N)N (as salt: hydrobromid) [Example 2.26, 2-(6-(amidinothiomethyl)phenyl)carbonyl-1-(amidinothiomethyl)-5-fluorobenzene dihydrobromide]
15 | > 250 °C | – | N=C(N)SCc1ccccc1C(=O)c1cc(F)ccc1CSC(=N)N (as salt: hydrobromid) [Example 2.27, 2-(6-(amidinothiomethyl)phenyl)carbonyl-1-(amidinothiomethyl)-4-fluorobenzene dihydrobromide]
16 | > 250 °C | – | N=C(N)SCc1ccccc1C(=O)c1cc(Cl)ccc1CSC(=N)N (as salt: hydrobromid) [Example 2.28, 2-(6-(amidinothiomethyl)phenyl)carbonyl-1-(amidinothiomethyl)-4-chlorobenzene dihydrobromide dihydrobromide]
17 | – | ≥ 1 | N=C(N)SCc1ccccc1C(=O)c1cc(Cl)ccc1CSC(=N)N [Example 2.28, 2-(6-(amidinothiomethyl)phenyl)carbonyl-1-(amidinothiomethyl)-4-chlorobenzene dihydrobromide dihydrobromide]
18 | – | ≥ 1 | N=C(N)SCc1ccccc1C(=O)c1ccc(Cl)cc1CSC(=N)N [Example 2.29, 2-(6-(amidinothiomethyl)phenyl)carbonyl-1-(amidinothiomethyl)-5-chlorobenzene dihydrobromide]
19 | – | 0.1 to 1 | N=C(N)SCc1cc(F)ccc1Oc1cc(Cl)ccc1CSC(=N)N [Example 2.30, 2-[2-({[amino(imino)methyl]thio}methyl)-5-chlorophenoxy]-5-fluorobenzyl imidothiocarbamate dihydrobromide]
20 | – | ≥ 1 | N=C(NN)SCc1ccccc1Sc1ccccc1CSC(=N)NN [Example 3, 2-(6-((aminoamidino)thiomethyl)phenyl)thio-1-((aminoamidino)thiomethyl)benzene dihydrobromide]
21 | – | ≥ 1 | N=C(N)NCCc1ccccc1Sc1ccccc1CCNC(=N)N [Example 5, (4-methylbenzenesulfonate)]
22 | – | ≥ 1 | N=C(N)CCc1ccccc1Sc1ccccc1CCC(=N)N [Example 6, 2-(6-(2-amidinoethyl)phenyl)thio-1-(2-amidinoethyl)benzene]
23 | – | ≥ 1 | N=C(N)Cc1ccccc1Sc1ccccc1CC(=N)N [Example 6.1, 2-(6-(amidinomethyl)phenyl)thio-1-(amidinomethyl)benzene]
24 | – | ≥ 1 | N=C(N)CCCc1ccccc1Sc1ccccc1CCCC(=N)N [Example 6.2, 2-(6-(3-amidinopropyl)phenyl)thio-1-(3-amidinopropyl)benzene]
25 | – | ≥ 1 | N#CN=C(N)Cc1ccccc1Sc1ccccc1CC(N)=NC#N [Example 7.1, 2-(6-((cyanoamidino)methyl)phenyl)thio-1-((cyanoamidino)methyl)benzene]
26 | – | ≥ 1 | NC(=S)Nc1ccccc1Sc1ccccc1NC(N)=S [Example 8, 1,1′-(2,2′-thiobis(2,1-phenylene))dithiourea]
27 | – | ≥ 1 | N=C(N)SCc1ccccc1-c1ccccc1CSC(=N)N [Example 9, 2-(2′-carbamimidoylsulfanylmethyl-biphenyl-2-ylmethyl)-isothiourea]

Reference: patent US20080234384A1, “BIARYL AND BIHETEROARYL COMPOUNDS USEFUL IN TREATING IRON DISORDERS” (XENON PHARMACEUTICALS INC., priority 2007, published 2008)
